Where two headings read alike, the source gives them in different places. Marks after values point to notes of the source that are not given here.
Columns and labels:
RhlR = biological target: T1, RhlR (Pseudomonas aeruginosa, UniProt P54292); assay: cell-based; conditions: for IC50: dose-response, FIG. 6A, different concentrations (0 to 100 μM); for Relative RhIR activity (%) Agonism / Relative RhIR activity (%) Antagonism: Table 4, concentration not given; for activity at 100 µM: read-out: Relative RhlR activity Agonism, Table 2; for Relative RhIR Activity (%) Agonism 100 / Relative RhIR Activity (%) Agonism 1000: Table 3; for Relative RhIR Activity (%) Agonism 1000: 1000 (μM); for remaining activity at 10 µM: read-out: Relative RhIR Activity (%) Antagonism 10, Table 3
T1 construct: expressed in transfected cells; host or cells: E. coli sdiA variant co-transformed with pJN105R and pSC11 (RhlA::lacZ)
T1 sequence (P54292 whole entry): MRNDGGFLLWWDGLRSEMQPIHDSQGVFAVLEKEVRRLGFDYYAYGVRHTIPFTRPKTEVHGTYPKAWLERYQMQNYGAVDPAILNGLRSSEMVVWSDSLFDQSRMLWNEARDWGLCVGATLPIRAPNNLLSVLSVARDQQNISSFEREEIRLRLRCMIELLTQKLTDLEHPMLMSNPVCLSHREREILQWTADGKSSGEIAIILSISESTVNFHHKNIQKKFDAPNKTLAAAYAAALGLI
Description: Escherichia coli (E. coli) DH5a includes LuxR homolog SdiA detecting endogenous AHL synthesized by other microbial species, particularly, BHL.
(§1) For RhlR reporter strain analysis, the present invention used pJN105R (RhlR expression plasmid), anspSC11 (RhlA::lacZ fusion plasmid) and an sdiA variant co-transformed with the two plasmids. 1% of an overnight-cultured reporter strain (OD 595 nm=1.0) supplemented with 10 μg/mL gentamicin and 50 μg/mL ampicillin was cultured in a Luria-Bertani (LB) medium (Difco, Detroit, Mich., USA) with a positive control or a compound (0-1000 μM) and BHL (0-10 μM) (Sigma-Aldrich) at 37° C. for 2 hours. 0.4% arabinose (Sigma-Aldrich) was reacted with the resulting product at 37° C. for 1.5 hours. β-galactosidase activity was evaluated using a Tropix plus kit (Applied Biosystems, CA, USA), and OD 595 nm and luminescence were measured using a VICTOR x5 multimode plate reader (PerkinElmer, Waltham, Mass., USA). Relative RhlR activity was quantified by measuring luminescence at OD 595 nm. In addition, for LasR reporter strain analysis, the present invention used pJN105L (LasR expression plasmid) and pSC11 (lasI::lacZ fusion plasmid), E. coli DH5a co-transformed with the two plasmids, and OdDHL (Sigma-Aldrich).

LasR = biological target: T2, LasR (Pseudomonas aeruginosa, UniProt P25084); assay: QS reporter strain assay, LasR (lasI::lacZ); format: cell-based; conditions: 0.1 and 10 μM; FIG. 6C
T2 construct: expressed in transfected cells; host or cells: E. coli DH5a co-transformed with pJN105L and pSC11 (lasI::lacZ)
T2 sequence (P25084 whole entry): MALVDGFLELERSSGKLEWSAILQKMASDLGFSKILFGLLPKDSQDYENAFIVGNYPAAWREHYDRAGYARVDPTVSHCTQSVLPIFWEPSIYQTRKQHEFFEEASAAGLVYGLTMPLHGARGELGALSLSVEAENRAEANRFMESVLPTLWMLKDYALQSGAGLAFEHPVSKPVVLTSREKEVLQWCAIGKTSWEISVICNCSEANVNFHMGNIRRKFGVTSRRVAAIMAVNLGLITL
Description: as §1

Pseudomonas aeruginosa [1] = assay: Static biofilm formation assay (crystal violet); format: cell-based; conditions: for Relative biological activity (%) Biofilm formation: Table 4, concentration not given; for activity at 10 µM / activity at 100 µM: Pseudomonas aeruginosa, 24 h, Table 3; for activity at 10 µM: read-out: Relative biological activity (%) Biofilm formation 10; for activity at 100 µM: read-out: Relative biological activity (%) Biofilm formation 100
Description: (§2) Pseudomonas aeruginosa (P. aeruginosa) (OD 595 nm=1.0) was cultured overnight, and diluted in an AB medium (1:20; 300 mM NaCl, 50 mM MgSO4, 0.2% vitamin-free casamino acids, 10 mM potassium phosphate, 1 mM L-arginine, and 1% glucose, pH 7.5) together with a positive control or compound (0100 μM) in a borosilicate bottle. The resulting mixture was incubated without shaking at 37° C. for 24 hours, and to measure growth inhibition activity. OD 595 nm of the suspended culture was measured using a multimode plate reader. Biofilm cells attached to the bottle were washed twice with phosphate-buffered saline (PBS; 137 mM NaCl, 2.7 mM KCl, 10 mM Na2HPO4, and 2 mM KH2PO4, pH 7.2). Afterward, the remaining biofilm cells were stained with 0.1% crystal violet for 10 minutes, and to remove the unbound crystal violet, washed with deionized water. The crystal violet […] to the biofilm cells was eluted with 100% ethanol, and the OD of the eluted ethanol sample was measured at 545 nm using a multimode plate reader.

Pseudomonas aeruginosa [2] = assay: Bacterial growth under static condition (OD 595 nm of suspended culture); format: cell-based; conditions: for Relative biological activity (%) Bacterial growth: Table 4, concentration not given; for activity at 10 µM / activity at 100 µM: Pseudomonas aeruginosa, 24 h, Table 3; for activity at 10 µM: read-out: Relative biological activity (%) Bacterial growth 10; for activity at 100 µM: read-out: Relative biological activity (%) Bacterial growth 100
Description: as §2

P. aeruginosa = assay: Rhamnolipid production assay; format: cell-based, Pseudomonas aeruginosa; conditions: for Relative biological activity (%) Rhamnolipid production: Table 4, concentration not given; for activity at 10 µM / activity at 100 µM: Pseudomonas aeruginosa, 24 h; for activity at 10 µM: read-out: Relative biological activity (%) Rhamnolipid production 10; for activity at 100 µM: read-out: Relative biological activity (%) Rhamnolipid production 100
Description: P. aeruginosa (OD 595 nm=1.0) cultured overnight was inoculated in an AB medium (1:100) with a positive control or compound (0100 μM), and incubated using a shaking culture for 24 hours at 37° C. The cell culture was centrifuged for 5 minutes at 4° C. and 12,000 g. Rhamnolipids were extracted twice by mixing 200 μL of a supernatant and 400 μL of 100% diethyl ether (JUNSEI, Tokyo, Japan). The supernatant was transferred to a new tube and evaporated. A dried sample was eluted with 20 μL of deionized water, and reacted with 180 μL of an Orcinal solution (0.19% Orcinal (Sigma-Aldrich) in 53% H2SO4). The reaction mixture was heated for 30 minutes at 80° C., and cooled for 15 minutes at room temperature. The amount of rhamnolipids was measured at OD 421 nm, and normalized in the cell culture solution at OD 595 nm using a multimode plate reader.

Pseudomonas aeruginosa [3] = assay: Dynamic biofilm formation assay (drip-flow reactor, CLSM); format: cell-based; conditions: 48 hours, 10 μM, smaller volume and thickness than control
Description: Glass slides were placed in a drip-flow reactor, and an AB medium containing 5% P. aeruginosa (OD 595 nm=1.0) was added along with a positive control or compound (0 to 10 μM) and the reactor was continuously operated using peristaltic pumps (Masterflex C/L tubing pumps, Cole-Parmer, Ill., USA) at 0.3 ml/min. After the above-described process was carried out at 37° C. for 48 hours, unattached biofilm cells were removed with PBS. The remaining biofilm cells were stained with DAPI (Sigma-Aldrich) for 10 minutes, and observed by confocal laser scanning microscopy (CLSM; Carl Zeiss LSM700, Jena, Germany). The CLSM image of the biofilm cells was obtained with a 20× objective lens (W NAchroplanX20/0.5W (DIC) M27) under blue fluorescence light (excitation wavelength: 350 nm, emission wavelength: 470 nm) using a Z-stack mode of the Zen 2011 program. The volume and thickness of the biofilm were measured using Comstat2 of the ImageJ program based on a CLSM image.

[4] = Table 2, footnotes not given, 100 μM per Table 3, lower = stronger antagonism
[5] = footnotes not given, matches the 100 column of Table 3
[6] = read-out: Relative RhlR activity Antagonism, Table 2, footnotes not given, 100 μM per Table 3, lower = stronger antagonism
[7] = read-out: Relative RhIR Activity (%) Antagonism 100, Table 3, 100 (μM)

Structure (SMILES) | Relative RhlR activity Antagonism (RhlR; [4]) | Relative RhIR activity (%) Agonism (RhlR) | Relative RhIR activity (%) Antagonism (RhlR) | activity at 100 µM (RhlR; [5]) [%] | remaining activity at 100 µM (RhlR; [6]) [%] | Relative biological activity (%) Biofilm formation (Pseudomonas aeruginosa [1]) | Relative biological activity (%) Bacterial growth (Pseudomonas aeruginosa [2]) [%] | Relative biological activity (%) Rhamnolipid production (P. aeruginosa) | Relative RhIR Activity (%) Agonism 100 (RhlR; 100 (μM)) | Relative RhIR Activity (%) Agonism 1000 (RhlR) | remaining activity at 10 µM (RhlR) [%] | remaining activity at 100 µM (RhlR; [7]) [%] | activity at 10 µM (Pseudomonas aeruginosa [1]; static) [%] | activity at 100 µM (Pseudomonas aeruginosa [1]; static) [%] | activity at 10 µM (Pseudomonas aeruginosa [2]) [%] | activity at 100 µM (Pseudomonas aeruginosa [2]) [%] | activity at 10 µM (P. aeruginosa; Table 3, 10 (μM)) [%] | activity at 100 µM (P. aeruginosa; Table 3, 100 (μM)) [%] | other results
CCCC(O)CC(=O)CCc1ccc(O)c(OC)c1 (stereo not drawn) [Compound 12a, 5-Hydroxy-1-(4-hydroxy-3-methoxyphenyl)octan-3-one] | 69** % |  |  |  |  |  |  |  |  |  |  |  |  |  |  |  |  |  | Relative RhlR activity Agonism (RhlR; Table 2, footnotes not given, matches the 100 column of Table 3): 4** %; IC50 (RhlR): 218 µM; LasR antagonistic activity (LasR): no LasR antagonistic activity
CCCC(O)CC(=O)/C=C/c1ccc(O)cc1 (stereo not drawn) [Compound 11d, (E)-5-Hydroxy-1-(4-hydroxyphenyl)oct-1-en-3-one] | 51** % | 1** % | 51** % | 1 | 51 | 74* % | 105 | 83% |  |  |  |  |  |  |  |  |  |  | 
CCCCCC(=O)/C=C/c1ccc(F)c(F)c1 [Compound 13a, (E)-1-(3,4-Difluorophenyl)oct-1-en-3-one] |  |  |  | 4 | 51 |  |  |  | 4** % | 3** % | 53 | 51 | 80 | 61 | 103 | 103 | 64 | 62 | biofilm formation compared with a control (in words) (Pseudomonas aeruginosa [1]; static, 100 μM): significantly inhibited
CCCC(O)C#Cc1ccc(F)c(F)c1 (racemic) [Compound 33a, 1-(3,4-Difluorophenyl)hex-1-yn-3-ol] |  |  |  | 3 | 32 |  |  |  | 3** % | 5** % | 45 | 32 | 73 | 60 | 100 | 104 |  | 49 | 
CCCCC[C@H](O)C#Cc1ccc(O)c(OC)c1 [Compound 23c, (S)-4-(3-Hydroxyoct-1-yn-1-yl)-2-methoxyphenol] | 34** % | 3** % | 34** % | 3 | 34 | 67* % | 104 | 86% |  |  |  |  |  |  |  |  |  |  | 
CCCCCCCCC(O)CC(=O)CCc1ccc(O)c(OC)c1 (stereo not drawn) [Compound 7, 5-Hydroxy-1-(4-hydroxy-3-methoxyphenyl)tridecan-3-one] |  | 2** % | 41** % | 2 | 41 | 79** % | 89 | 69* % |  |  |  |  |  |  |  |  |  |  | 
CCCCC[C@@H](O)C#Cc1ccc(O)c(OC)c1 [Compound 23b, (R)-4-(3-Hydroxyoct-1-yn-1-yl)-2-methoxyphenol] | 27** % | 3** % | 27** % | 3 | 27 | 79* % | 100 | 77* % |  |  |  |  |  |  |  |  |  |  | 
CCCC(=O)NC1CCCC1 [Compound 1d, N-cyclopentylbutyramide, reference compound] | 54** % | 4** % |  | 4 | 54 | 81* % |  | 68* % | 4** % | 37% | 74 | 54 | 84 | 69 | 95 | 98 |  |  | IC50 (RhlR): 86 µM; biofilm appearance under flow condition vs control (Pseudomonas aeruginosa [3]): thinner and more dispersed biofilm; activity at 10 µM (P. aeruginosa): 58%; activity at 100 µM (P. aeruginosa): 45%
CCC[C@H](O)C#Cc1ccc(F)c(F)c1 [Compound 33c, (S)-1-(3,4-Difluorophenyl)hex-1-yn-3-ol] |  |  |  | 3 | 38 |  |  |  | 3** % | 5** % | 59 | 38 | 79 | 64 | 98 | 99 | 59 | 52 | 
CCCC(O)CC(=O)/C=C/c1cccc(OC)c1 (stereo not drawn) [Compound 11c, (E)-5-Hydroxy-1-(3-methoxyphenyl)oct-1-en-3-one] |  | 2** % |  | 2 | 94 | 82* % | 101 | 95% | 2** % | 4** % | 89 | 94 | 88 | 73 | 96 | 95 | 91 | 83 | 

— US20220289657A1, “COMPOSITION FOR PREVENTING OR TREATING BACTERIAL INFECTIOUS DISEASE COMPRISING 4-GINGEROL DERIVATIVE COMPOUND AS ACTIVE INGREDIENT” (KOREA UNIVERSITY RESEARCH AND BUSINESS FOUNDATION, SEJONG …, priority 2019, published 2022)
